According to ChEMBL document CHEMBL1201862, “PubChem BioAssay data set” (2004):
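Grown in 96-well plates, cells were treated for 48 hours with each compound at five concentrations. Insufficient inhibition: endpoint recorded as highest concentration tested. Abbreviation: GI50, concentration required for 50% inhibition of growth.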 Activity calls are given as the source filed them. Cut-off read from the data, not from the text of the source: active = GI50 up to about 1.1 µM and inactive = higher.

Experiments:
Assay in all cases: NCI-60 cell line screen, 48 h
[1] = test system: CCRF-CEM
[2] = test system: HCT-116
[3] = test system: HCT-15
[4] = test system: HL-60
[5] = test system: LOX IMVI
[6] = test system: Malme-3M
[7] = test system: NCI-H460
[8] = test system: OVCAR-3
[9] = test system: OVCAR-5
[10] = test system: OVCAR-8
[11] = test system: SF-268
[12] = test system: SF-295
[13] = test system: SF-539
[14] = test system: SK-MEL-2
[15] = test system: SK-MEL-5
[16] = test system: SNB-75
[17] = test system: SR
[18] = test system: UO-31
[19] = test system: HOP-92

Row | Compound | GI50 [1] | GI50 [2] | GI50 [3] [µM] | GI50 [4] | GI50 [5] | GI50 [6] | GI50 [7] | GI50 [8] | GI50 [9] | GI50 [10] | GI50 [11] | GI50 [12] | GI50 [13] | GI50 [14] | GI50 [15] | GI50 [16] | GI50 [17] | GI50 [18] | GI50 [19]
1 | Cc1cc(N(CCC#N)S(=O)(=O)c2ccccc2)ccc1C=O | > 100 µM (inactive) | > 100 µM (inactive) | > 100 | > 100 µM (inactive) | > 100 µM (inactive) | > 100 µM (inactive) | > 100 µM (inactive) | > 100 µM (inactive) | > 100 µM (inactive) | > 100 µM (inactive) | > 100 µM (inactive) | > 100 µM (inactive) | > 100 µM (inactive) | > 100 µM (inactive) | > 100 µM (inactive) | > 100 µM (inactive) | > 100 µM (inactive) | > 100 µM (inactive) | –
2 | CC(C)(C)NCC(COc1ccc([N+](=O)[O-])cc1)OP(c1ccccc1)c1ccccc1 (stereo not given) | 27.8 µM (inactive) | 33 µM (inactive) | 37.8 | 19.7 µM (inactive) | 11 µM (inactive) | 25 µM (inactive) | 35.8 µM (inactive) | 34 µM (inactive) | 82.4 µM (inactive) | 34.8 µM (inactive) | 49.1 µM (inactive) | 23.7 µM (inactive) | 53.1 µM (inactive) | 35.4 µM (inactive) | 18.8 µM (inactive) | 33.7 µM (inactive) | – | 20.6 µM (inactive) | –
3 | CC(C)C(C(=O)O)N(CC1(O)OCC(O)C(O)C1O)N=O (stereo not given) | > 100 µM (inactive) | > 100 µM (inactive) | – | > 100 µM (inactive) | > 100 µM (inactive) | > 100 µM (inactive) | > 100 µM (inactive) | > 100 µM (inactive) | > 100 µM (inactive) | > 100 µM (inactive) | – | – | > 100 µM (inactive) | > 100 µM (inactive) | > 100 µM (inactive) | > 100 µM (inactive) | – | > 100 µM (inactive) | > 100 µM (inactive)
4 | CNC(C)(C)Cc1ccc(Cl)cc1 | > 100 µM (inactive) | > 100 µM (inactive) | – | – | > 100 µM (inactive) | > 100 µM (inactive) | > 100 µM (inactive) | > 100 µM (inactive) | – | > 100 µM (inactive) | > 100 µM (inactive) | > 100 µM (inactive) | > 100 µM (inactive) | > 100 µM (inactive) | > 100 µM (inactive) | > 100 µM (inactive) | – | – | –
5 | CC(C)OC(=O)c1cccnc1/C=N/O | > 100 µM (inactive) | > 100 µM (inactive) | > 100 | > 100 µM (inactive) | > 100 µM (inactive) | > 100 µM (inactive) | 84.1 µM (inactive) | > 100 µM (inactive) | > 100 µM (inactive) | > 100 µM (inactive) | > 100 µM (inactive) | 88.5 µM (inactive) | > 100 µM (inactive) | > 100 µM (inactive) | > 100 µM (inactive) | > 100 µM (inactive) | – | > 100 µM (inactive) | –
6 | CCC1CCCCN1CC(C(C)=O)C(c1ccccc1)c1c(O)c2ccccc2oc1=O (stereo not given) | > 100 µM (inactive) | > 100 µM (inactive) | > 100 | 76.4 µM (inactive) | > 100 µM (inactive) | > 100 µM (inactive) | > 100 µM (inactive) | > 100 µM (inactive) | 50.7 µM (inactive) | > 100 µM (inactive) | > 100 µM (inactive) | > 100 µM (inactive) | > 100 µM (inactive) | > 100 µM (inactive) | > 100 µM (inactive) | 6.87 µM (inactive) | 80.7 µM (inactive) | > 100 µM (inactive) | –
7 | CSc1nc2c(nc(N)n2C2OC(COC(C)=O)C(OC(C)=O)C(OC(C)=O)C2OC(C)=O)c(=O)n1C (stereo not given) | > 100 µM (inactive) | > 100 µM (inactive) | > 100 | > 100 µM (inactive) | > 100 µM (inactive) | > 100 µM (inactive) | > 100 µM (inactive) | > 100 µM (inactive) | > 100 µM (inactive) | > 100 µM (inactive) | – | > 100 µM (inactive) | > 100 µM (inactive) | > 100 µM (inactive) | > 100 µM (inactive) | > 100 µM (inactive) | – | > 100 µM (inactive) | > 100 µM (inactive)
8 | CC(=O)OC1COC(n2c(=S)n(-c3ccc(C)cc3)c(=O)c3ccccc32)C(OC(C)=O)C1OC(C)=O (stereo not given) | – | > 100 µM (inactive) | > 100 | – | > 100 µM (inactive) | > 100 µM (inactive) | > 100 µM (inactive) | > 100 µM (inactive) | > 100 µM (inactive) | 68.2 µM (inactive) | > 100 µM (inactive) | 85.5 µM (inactive) | > 100 µM (inactive) | > 100 µM (inactive) | > 100 µM (inactive) | 63.2 µM (inactive) | – | > 100 µM (inactive) | 45.8 µM (inactive)
9 | CC1CN=C(NCc2ccccc2)S1 (stereo not given) | > 100 µM (inactive) | > 100 µM (inactive) | > 100 | 65 µM (inactive) | > 100 µM (inactive) | > 100 µM (inactive) | > 100 µM (inactive) | > 100 µM (inactive) | > 100 µM (inactive) | – | > 100 µM (inactive) | – | > 100 µM (inactive) | > 100 µM (inactive) | – | > 100 µM (inactive) | 29 µM (inactive) | > 100 µM (inactive) | –
10 | NC1CCC2(O)c3ccccc3C2C1 (stereo not given) | > 100 µM (inactive) | > 100 µM (inactive) | > 100 | > 100 µM (inactive) | > 100 µM (inactive) | > 100 µM (inactive) | > 100 µM (inactive) | – | – | > 100 µM (inactive) | > 100 µM (inactive) | > 100 µM (inactive) | – | > 100 µM (inactive) | > 100 µM (inactive) | > 100 µM (inactive) | > 100 µM (inactive) | > 100 µM (inactive) | –
11 | Cc1[nH]c2ccccc2c1-c1n[nH]c(=O)c2ccccc12 | 22.9 µM (inactive) | 13.3 µM (inactive) | 5.33 | 7.82 µM (inactive) | – | 22.3 µM (inactive) | 22.9 µM (inactive) | 23.3 µM (inactive) | 46.5 µM (inactive) | 32.5 µM (inactive) | – | 23.3 µM (inactive) | 24.3 µM (inactive) | 31.7 µM (inactive) | 15.5 µM (inactive) | 15.3 µM (inactive) | – | 17.3 µM (inactive) | –
12 | CC(=O)OCCOCNC(=S)N/N=C/c1cc(Br)cs1 | > 100 µM (inactive) | > 100 µM (inactive) | > 100 | > 100 µM (inactive) | > 100 µM (inactive) | > 100 µM (inactive) | > 100 µM (inactive) | > 100 µM (inactive) | > 100 µM (inactive) | > 100 µM (inactive) | > 100 µM (inactive) | > 100 µM (inactive) | > 100 µM (inactive) | > 100 µM (inactive) | > 100 µM (inactive) | > 100 µM (inactive) | > 100 µM (inactive) | > 100 µM (inactive) | –
13 | S=C1ON=C(c2ccccc2)/C1=C/Nc1ccccc1 | > 100 µM (inactive) | – | 78.9 | > 100 µM (inactive) | > 100 µM (inactive) | 77.1 µM (inactive) | > 100 µM (inactive) | – | > 100 µM (inactive) | > 100 µM (inactive) | > 100 µM (inactive) | > 100 µM (inactive) | 97.7 µM (inactive) | > 100 µM (inactive) | > 100 µM (inactive) | > 100 µM (inactive) | – | > 100 µM (inactive) | –
14 | Clc1ccc2c(c1)-c1c3c(nn1-c1ccccc1)-c1ccccc1SC3O2 (stereo not given) | 44.9 µM (inactive) | > 100 µM (inactive) | – | 79.4 µM (inactive) | 71.3 µM (inactive) | > 100 µM (inactive) | > 100 µM (inactive) | > 100 µM (inactive) | > 100 µM (inactive) | > 100 µM (inactive) | > 100 µM (inactive) | > 100 µM (inactive) | > 100 µM (inactive) | > 100 µM (inactive) | > 100 µM (inactive) | 82.6 µM (inactive) | – | > 100 µM (inactive) | 35.7 µM (inactive)
15 | CCOC(=O)/C=C1\CCCC12OCCO2 | > 100 µM (inactive) | 54.1 µM (inactive) | > 100 | > 100 µM (inactive) | – | > 100 µM (inactive) | > 100 µM (inactive) | 28 µM (inactive) | – | 89.5 µM (inactive) | > 100 µM (inactive) | – | > 100 µM (inactive) | > 100 µM (inactive) | > 100 µM (inactive) | 77.3 µM (inactive) | 25.8 µM (inactive) | > 100 µM (inactive) | –
16 | N#C/C(=C1\SC(C(N)=O)=C(N)N1c1ccccc1)c1nc2ccccc2[nH]1 | > 100 µM (inactive) | > 100 µM (inactive) | > 100 | > 100 µM (inactive) | 32.2 µM (inactive) | > 100 µM (inactive) | > 100 µM (inactive) | > 100 µM (inactive) | > 100 µM (inactive) | > 100 µM (inactive) | > 100 µM (inactive) | > 100 µM (inactive) | 75.9 µM (inactive) | > 100 µM (inactive) | > 100 µM (inactive) | 48.2 µM (inactive) | – | 99.1 µM (inactive) | 39.5 µM (inactive)
17 | [O-][S+](Nc1ccccc1)c1ccc(-c2ccccc2)cc1 (stereo not given) | > 100 µM (inactive) | > 100 µM (inactive) | > 100 | > 100 µM (inactive) | 28.5 µM (inactive) | > 100 µM (inactive) | > 100 µM (inactive) | > 100 µM (inactive) | > 100 µM (inactive) | 45.8 µM (inactive) | > 100 µM (inactive) | 55.8 µM (inactive) | > 100 µM (inactive) | – | > 100 µM (inactive) | – | > 100 µM (inactive) | > 100 µM (inactive) | –
